Assay results as given in PMC10762035, “Molecular basis of human trace amine-associated receptor 1 activation” (Nature Communications, 2024).
Changes are numbered by the printed parent chain. Values joined by “and” are separate entries in the source; they are usually repeats but may differ in a detail not shown here. Identical values can stand only once. Like-named read-outs stand apart in the source and are kept apart here.

Legend:
Format in all cases: cell-based
[1] = target: T1, hTA1 T271A (Homo sapiens, UniProt Q96RJ0, T271A); assay: GloSensor cAMP accumulation assay, T271A mutant
T1 construct: expressed in transfected cells; host or cells: HEK293T
T1 sequence (Q96RJ0 1-339 T271A): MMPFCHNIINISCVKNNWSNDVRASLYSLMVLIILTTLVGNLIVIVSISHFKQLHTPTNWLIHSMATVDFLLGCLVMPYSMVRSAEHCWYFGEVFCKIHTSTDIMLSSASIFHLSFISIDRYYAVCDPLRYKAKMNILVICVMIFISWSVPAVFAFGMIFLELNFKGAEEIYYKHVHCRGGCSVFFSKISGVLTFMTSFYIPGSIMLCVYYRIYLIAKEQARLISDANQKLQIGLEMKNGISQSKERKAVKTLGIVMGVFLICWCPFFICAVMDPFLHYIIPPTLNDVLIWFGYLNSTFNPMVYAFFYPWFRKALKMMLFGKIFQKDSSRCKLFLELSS

[2] = target: T2, hTA1 C88/178S (Homo sapiens, UniProt Q96RJ0, C178S/C88S); assay: GloSensor cAMP accumulation assay, C88S/C178S double mutant; settings: for EC50: read-out: EC50; for Normalized Luminescence Counts (N=2): log[Compound], single replicate values
T2 construct: expressed in transfected cells; host or cells: HEK293T
T2 sequence (Q96RJ0 1-339 C88S/C178S): T1 sequence (Q96RJ0 1-339 T271A) with C88S, C178S, A271T

[3] = target: T3, β2AR-Nterm-hTA1-F112^3.41W (CryoEM Construct) (Homo sapiens, UniProt Q96RJ0, F112W); assay: GloSensor cAMP accumulation assay, cryoEM construct;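 also: cells transiently co-transfected with the receptor construct and GloSensor cAMP biosensor, luminescence read after 30 min compound exposure at room temperature in the dark as cAMP accumulation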;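 as to Normalized Luminescence Counts (N=2): normalized to the maximum response of β-PEA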
T3 construct: FLAG (N); 10xHis (N); TEV protease site (N); expressed in transfected cells; host or cells: HEK293T
T3 sequence (Q96RJ0 with tags, fused parts or gaps F112W): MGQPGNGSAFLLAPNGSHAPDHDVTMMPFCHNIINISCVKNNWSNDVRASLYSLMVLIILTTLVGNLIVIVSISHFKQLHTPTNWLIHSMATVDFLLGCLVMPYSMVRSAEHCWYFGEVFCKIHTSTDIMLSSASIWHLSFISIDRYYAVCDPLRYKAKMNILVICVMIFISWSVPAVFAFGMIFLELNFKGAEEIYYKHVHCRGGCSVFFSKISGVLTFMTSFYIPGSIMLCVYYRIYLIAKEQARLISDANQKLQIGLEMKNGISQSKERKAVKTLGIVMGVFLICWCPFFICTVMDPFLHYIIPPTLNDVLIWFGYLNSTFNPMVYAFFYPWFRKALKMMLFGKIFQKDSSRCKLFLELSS

[4] = target: T4, hTA1 S107C (Homo sapiens, UniProt Q96RJ0, S107C); assay: GloSensor cAMP accumulation assay, S107C mutant;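 also: cells transiently co-expressing receptor and GloSensor biosensor, luminescence read after 30 min agonist exposure at room temperature, concentration-response fitted by nonlinear regression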
T4 construct: expressed in transfected cells; host or cells: HEK293T
T4 sequence (Q96RJ0 1-339 S107C): T1 sequence (Q96RJ0 1-339 T271A) with S107C, A271T

[5] = target: T5, hTA1 (Homo sapiens, UniProt Q96RJ0); assay: Screen of 89 aminergic compounds at 10 µM, cAMP accumulation in HEK293T cells; settings: 10 µM of compound; HEK293T; threshold log2-fold change of 2;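 also: HEK293T cells co-transfected with hTA1 and GloSensor cAMP reporter, cAMP accumulation detected by luminescence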
T5 construct: expressed in transfected cells; host or cells: HEK293T
T5 sequence (Q96RJ0 1-339): T1 sequence (Q96RJ0 1-339 T271A) with A271T

[6] = target: T6, hTA1 b2N (Homo sapiens, UniProt Q96RJ0); assay: GloSensor cAMP accumulation assay, b2N construct; settings: b2N, n=2; for EC50: read-out: EC50
T6 construct: read by me as the first 25 residues of β2AR (N); expressed in transfected cells; host or cells: HEK293T
T6 sequence (Q96RJ0 with tags, fused parts or gaps): as the sequence (Q96RJ0 with tags, fused parts or gaps F112W) above, with W137F counted along it

[7] = read-out: Span ± SEM (Emax normalized to β-PEA)
[8] = CryoEM Construct, n=2, read-out: EC50
[9] = C88S, C178S, each row is one independent experiment, 3 replicates
[10] = Cryo EM Construct, mean of each independent experiment (3 replicates)

Compound: CN1CC2c3ccccc3Oc3ccc(Cl)cc3C2C1 (centres unmarked) [asenapine]
- reduction in potency vs wild type ([1]; T271A): roughly 4 fold
- Emax values of Asenapine ([1]; T271A, Mean of one experiment): 88.882
- Emax ([1]; T271A, Mean of one experiment, read-out: Emax values of Asenapine): 101%
- EC50 ([1]; T271A, Mean of one experiment, read-out: pEC50 values of Asenapine (converted)): 1.3 µM and 1.02 µM
- EC50 ([1]; T271A, n=2, read-out: EC50): 1.15 µM
- Emax ([1]; T271A, n=2, read-out: Span ± SEM (Emax normalized to β-PEA)): 94.8 ± 5.91%
- ΔEmax values (each mutant value - WT average), T271A, Mean ([1]; hTA1 T271A mutant vs WT average, Figure 6B, each line is one experiment (3 replicates)): 11.9925 and 0.1748
- EC50 ([2]; C88/178S, n=2): 0.205 µM
- Emax [2, 7]: 86.3 ± 8.4%
- EC50 [3, 8]: 0.0518 µM
- Emax ([3]; CryoEM Construct, n=2, read-out: Span ± SEM (Emax normalized to β-PEA)): 95.2 ± 1.98%
- EC50 ([3]; CryoEM Construct, n=2, read-out: pEC50 ± SEM (converted)): 0.0525 µM
- Emax values, Mean ([4]; S107C, Asenapine, per experiment, 3 replicates): 91.6842 and 105.217
- EC50 ([4]; S107C, Asenapine, per experiment, 3 replicates, read-out: pEC50 values Mean (converted)): 0.383 µM and 0.996 µM
- EC50 ([4]; S107C, n=2, read-out: EC50): 0.618 µM
- Emax ([4]; S107C, n=2, read-out: Span ± SEM (Emax normalized to β-PEA)): 98.5 ± 6.76%
- increase of signal over DMSO-treated controls (hTA1 activation) [5]: ≥ 4 fold
- EC50 [6]: 0.0728 µM
- Emax [6, 7]: 97.39 ± 0.96%

Compound: NCCc1ccccc1 [β-PEA, β-phenethylamine]
- reduction in potency vs wild type ([1]; T271A): about 10 fold
- ΔpEC50 values (each mutant value - WT average), Mean ([1]; T271A mutant minus WT average, Figure 5B): -1.015 and -0.8638
- pEC50 values, Mean ([1]; T271A mutant, Figure 5B, each row one independent experiment (3 replicates)): 6.079 and 6.23
- Emax values, Mean ([1]; T271A mutant, Figure 5B, β-PEA = 100, each row one independent experiment (3 replicates)): 100
- Span ± SEM (Emax normalized to β-PEA) ([1]; T271A, n=2): 100 ± 2.03
- pEC50 ± SEM ([1]; T271A, n=2): 6.15 ± 0.03
- EC50 ([1]; T271A, n=2, read-out: EC50): 0.701 µM
- Span ± SEM (Emax normalized to β-PEA) ([2]; C88/178S, n=2): 100 ± 2.48
- pEC50 ± SEM ([2]; C88/178S, n=2): 6.88 ± 0.05
- EC50 ([2]; C88/178S, n=2): 0.131 µM
- pEC50 values, Mean [2, 9]: 6.846 and 6.92
- ΔEmax values (each mutant value - WT average), Mean [2, 9]: 0
- ΔpEC50 values (each mutant value - WT average), Mean [2, 9]: -0.2478 and -0.1738
- Normalized Luminescence Counts (N=2) ([2]; C88S, C178S, M = -5): 101.882 and 95.4366 and 102.899 and 85.0446 and 70.847 and 114.648
- Normalized Luminescence Counts (N=2) ([2]; C88S, C178S, M = -5.522): 95.8888 and 94.7581 and 92.1574 and 110.721 and 84.1384 and 118.726
- Normalized Luminescence Counts (N=2) ([2]; C88S, C178S, M = -6): 93.4012 and 85.4861 and 88.3694 and 88.8206 and 85.1957 and 105.284
- Normalized Luminescence Counts (N=2) ([2]; C88S, C178S, M = -6.522): 70.73 and 60.7795 and 60.3272 and 66.7689 and 68.1283 and 68.2793
- Normalized Luminescence Counts (N=2) ([2]; C88S, C178S, M = -7): 45.3449 and 38.504 and 42.0658 and 45.3213 and 30.2174 and 49.8525
- Normalized Luminescence Counts (N=2) ([2]; C88S, C178S, M = -7.522): 20.2426 and 24.5959 and 17.7549 and 22.8165 and 30.2174 and 24.931
- Normalized Luminescence Counts (N=2) ([2]; C88S, C178S, M = -8): 8.37 and 6.617 and 6.9 and 9.072 and 8.317 and 8.6188
- Normalized Luminescence Counts (N=2) ([2]; C88S, C178S, M = -8.522): 1.02 and 2.433 and 0.1154 and 4.692 and 3.483 and 4.843
- Normalized Luminescence Counts (N=2) ([2]; C88S, C178S, M = -9): 0.5677 and 0.7373 and -0.4499 and -0.2925 (2×) and 1.218
- Normalized Luminescence Counts (N=2) ([2]; C88S, C178S, M = -9.522): 0.002362 and 0.3416 and -0.5065 and -0.8967 and 0.3116 and 0.009559
- Normalized Luminescence Counts (N=2) ([2]; C88S, C178S, M = -10): -0.9588 and 0.002362 and -0.3934 and -1.652 and -0.4436 and -1.199
- Normalized Luminescence Counts (N=2) ([2]; C88S, C178S, M = -10.522): -1.185 and -0.563 and -1.0153 and -1.803 and 0.009559 and -1.35
- Normalized Luminescence Counts (N=2) ([2]; C88S, C178S, M = -11): -0.05417 and -0.2238 and 0.4547 and -0.2925 and -1.652 and -0.7456
- Normalized Luminescence Counts (N=2) ([2]; C88S, C178S, M = -11.522): 0.172 and 0.1154 and 0.7939 and 0.1606 and -1.954 and -0.4436
- Normalized Luminescence Counts (N=2) ([2]; C88S, C178S, M = -12): 0.172 and -0.6195 and -0.5065 and -0.1415 and -1.35 and 0.9158
- Normalized Luminescence Counts (N=2) ([2]; C88S, C178S, M = -12.522): -0.2803 and 0.2285 and 0.002362 and -1.199 and 0.4627 and 0.6137
- Emax values, Mean ([2]; C88S, C178S, normalized (β-PEA = 100), each row is one independent experiment, 3 replicates): 100
- ΔEmax values (each mutant value - WT average), Mean ([3]; Cryo EM Construct minus WT average): 0
- Emax values, Mean [3, 10]: 0.8322
- pEC50 values, Mean [3, 10]: 7.553 and 7.926
- Normalized Luminescence Counts (N=2) ([3]; CryoEM Construct, log[Compound], M = -5, single replicates): 99.4824 and 93.6783 and 105.677 and 107.109
- Span ± SEM (Emax normalized to β-PEA) ([3]; CryoEM Construct, n=2): 100 ± 1.84
- pEC50 ± SEM ([3]; CryoEM Construct, n=2): 7.75 ± 0.04
- EC50 [3, 8]: 0.0174 µM
- ΔEmax values (each mutant value - WT average) ([4]; S107C mutant minus WT average): 0
- Emax values, Mean ([4]; S107C mutant, β-PEA = 100, each line an independent experiment, 3 replicates): 100
- Span ± SEM (Emax normalized to β-PEA) ([4]; S107C, n=2): 100 ± 3.55
- pEC50 ± SEM ([4]; S107C, n=2): 6.69 ± 0.71
- EC50 ([4]; S107C, n=2, read-out: EC50): 0.205 µM
- increase of signal over DMSO-treated controls (hTA1 activation) [5]: ≥ 4 fold
- Span ± SEM (Emax normalized to β-PEA) [6]: 100 ± 3.11
- pEC50 ± SEM [6]: 7.59 ± 0.07
- EC50 [6]: 0.0255 µM
